Structures can show the parent of a compound that is named as a salt.
Experiment: Fluorescence lifetime and emission measurements
Assay type: physicochemical
Settings: 10 μM in H2O, 375 nm excitation
Method: The emission spectra were generated by excitation of a 10 μM solution of either pyridinium salt 2a or pyridinium salt 2b in H2O. Analyses were performed at 375 nm excitation with an emission slit width of 5 nm and an excitation slit width of 5 nm. The emission wavelength was gathered from 400 nm to 600 nm.
FIGS. 9A-9D show fluorescence decay spectra of pyridinium salts 2a and 2b in selected solvents according to at least one embodiment of the present disclosure. Specifically, FIG. 9A is a fluorescence decay spectrum of pyridinium salt 2a in 1,2-dichloroethane, FIG. 9B is a fluorescence decay spectrum of pyridinium salt 2a in CH3CN, FIG. 9C is a fluorescence decay spectrum of pyridinium salt 2a in H2O, and FIG. 9D is a fluorescence decay spectrum of pyridinium salt 2b in H2O. The fluorescent decay spectra were generated with a 1-10 μM solution of pyridinium salt (10 μM for H2O and 1 μM for other solvents) using a GG420 long pass filter and a 375 nm excitation wavelength. The instrument response factor was measured using a highly diluted solution of LUDOX AS-30 colloidal silica in water and a ND1.0 filter. The concentration of LUDOX and the emission slit width were adjusted until the intensity of the instrument response function (IRF) was similar to the fluorescent decay intensity. The procedure given in the EasyLife X User's Manual was followed.

relative fluorescence quantum yield ΦF1 of pyridinium salt 2b: pyridinium salt 2a: 3.3
SMILES: COc1ccc2cc(-c3cc(C)[n+](N(C)C(=O)OCCCCC[C@H]4SC[C@H]5NC(=O)N[C@H]54)c(C)c3)ccc2c1 (stereo in doubt) [pyridinium salt 2b, 4-(6-methoxynaphthalen-2-yl)-2,6-dimethyl-1-(methyl(((5-((3aR,4R,6aS)-2-oxohexahydro-1H-thieno[3,4-d]imidazol-4-yl)pentyl)oxy)carbonyl)amino)pyridin-1-ium tetrafluoroborate]
